# According to patent US12546785B2, “IL-17F and IL-17A-specific capture agents, compositions, and methods of using and making” (Regeneron Pharmaceuticals, Inc., priority 2017, dated 2026):
# Entries after “also recorded” stand apart in the source; their conditions may differ. Bridge positions count the residues as written; N and C are the ends. Square brackets hold non-standard residues; d marks the D form. Triazole bridges read from a SMILES are 1,4-linked. Peptide text beside a SMILES is read from it. * marks the point of attachment. ξ: configuration not given here. Biotinyl(3aR,4R,6aS) = O=C1N[C@@H]2[C@@H](CS[C@@H]2CCCCC(=O)*)N1; X1 = O=C(CCCCC1SC[C@H]2NC(=O)N[C@@H]12)NCCCOCCOCCOCCCN*; Lys(N3) = [N-]=[N+]=NCCCC[C@H](N)C(=O)O; dThr(3ξ) = CC(O)[C@@H](N)C(=O)O; Thr(3ξ) = CC(O)[C@H](N)C(=O)O; AEEEA = NCCOCCOCCOCC(=O)O; Pra = C#CC[C@H](N)C(=O)O
# How the values were obtained:
# [1] = molecular target: T1, full-length His-tagged IL-17F protein (Homo sapiens, UniProt Q96PD4); test: Sandwich ELISA: IL-17F captured by ligand immobilized on NeutrAvidin plate; type: binding; details: for binding affinity compared, in words: sandwich ELISA
# T1 construct: Full-length His-tagged IL-17F protein (ab167911, Abcam) was serially diluted in Wash Buffer; purchased Abcam ab167911
# T1 sequence (Q96PD4 31-163): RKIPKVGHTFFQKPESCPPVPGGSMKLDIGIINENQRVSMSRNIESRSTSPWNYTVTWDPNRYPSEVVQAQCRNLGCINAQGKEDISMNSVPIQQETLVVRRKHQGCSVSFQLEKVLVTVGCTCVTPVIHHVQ
# Protocol: Sandwich ELISA. A black 96-well NeutrAvidin Coated High Binding Capacity plate (15510, Pierce) was coated with 2 μM macrocyclic peptide ligand in TBS (25 mM Tris-HCl, 150 mM NaCl, pH 7.6) for 2 h at room temperature. Biotinylated monoclonal anti-IL17F (TA319597, Origene) was coated at 4 μg/mL in TBS as a control. The plate was aspirated and then washed with TBS (5×) and Wash Buffer (0.05% (v/v) Tween-20 in PBS, 1×). Full-length His-tagged IL-17F protein (ab167911, Abcam) was serially diluted in Wash Buffer (from 800 to 0 nM) and incubated in the designated microwells for 90 min at room temperature. Microwells were aspirated and subsequently washed with Wash Buffer (10×). To detect the bound IL-17F protein, Alkaline Phosphatase (AP)-conjugated Anti-6X His tag® antibody [HIS-1] (ab49746, Abcam) was prepared at 1:10,000 dilution and added to the microwells for 1 h at room temperature. The plate was aspirated and washed with Wash Buffer (11×). AttoPhos® AP Fluorescent Substrate System (S1000, Promega) was employed to develop the microwells. Using an excitation wavelength of 430 nm, fluorescent emission at 535 nm was recorded by Beckman Coulter DTX880 photometer. Titration curves were fit using a four-parameter regression curve fitting program (Origin 8.5) to determine EC50 values.
# (§1) For these assays, a dilution series of full-length His-tagged IL-17F protein was captured using the macrocyclic peptide ligands immobilized on a NeutrAvidin-coated plate.
# Sandwich ELISA. These assays were performed using the same protocol that was used to evaluate the IL-17F Epitope1 targeted ligands.
# as §1
# trypsin = test: Trypsin protease digestion, analytical HPLC; type: in vitro ADME; details: trypsin 1 h at 37° C., analytical HPLC at 215 nm
# Protocol: Bi-LF Biotin-PEG3-Cy(RSYNKX1X2) (SEQ ID NO:102)-PEG3-Cy(RRATSX1X2) (SEQ ID NO:83) (X1=azidolysine and X2=propargylglycine) was incubated with trypsin to study its susceptibility to protease digestion. Trypsin can cleave peptides and proteins on the C-terminal side of lysine and arginine L-amino acids. For this assay, test compounds were treated with trypsin protease (1 h at 37° C.) or left untreated as a control. In an Eppendorf tube, 4 μL of trypsin solution (10 μg/mL in 1 mM HCl) and 80 pmol of biligand were added to TBS for a final volume of 20 μL. The solution was incubated for 1 h at 37° C., and then further diluted with 80 μL TBS. 50 μL of each sample was injected into a Dionex Ultimate 3000 series analytical HPLC fitted with a Phenomenex Luna-C18 column, and eluted with a gradient of 10%-62% acetonitrile in 0.1% TFA (v/v) in water over 45 min. The samples were monitored at 215 nm.
# IL-17F protein [2] = molecular target: T2, IL-17F protein (Homo sapiens, UniProt Q96PD4); test: IL-17F binding in a background of human serum, surface-immobilized ligand; details: for IL-17F binding efficiency in human serum: up to 10% (v/v) serum
# T2 construct: His tag
# T2 sequence (Q96PD4 31-163): T1 sequence (Q96PD4 31-163)
# Description: Binding to IL-17F in 25% (v/v) serum is also detectable.
# Target binding in biologically complex samples was interrogated by contacting surface-immobilized macrocycles with IL-17F protein in a background of human serum.
# [3] = system: His-tagged IL-17F Epitope1 (C48S); test: Assay to determine orientation of macrocycle binding to IL-17F Epitope1 (point ELISA with His-tagged epitopes); details: epitope 2 μM
# Protocol: (§2) Assay to determine orientation of macrocycle binding to IL-17F Epitope1. A black 96-well NeutrAvidin Coated High Binding Capacity plate (15510, Pierce) was coated with 2 μM macrocyclic peptide ligand in TBS (pH 7.6) for 2 h at room temperature. Biotinylated monoclonal anti-IL17F (TA319597, Origene) was coated at 4 μg/mL in TBS as a control. The plate was aspirated and then washed with TBS (5×) and Wash Buffer (0.05% (v/v) Tween-20 in PBS, 1×). Chemically synthesized His-tagged IL-17F epitopes were prepared at 2 μM in Wash Buffer and incubated in the designated microwells for 90 min at room temperature. Wash Buffer without epitope was added as a control. Microwells were aspirated and subsequently washed with Wash Buffer (10×). To detect the bound IL-17F epitopes, Alkaline Phosphatase (AP)-conjugated Anti-6X His tag® antibody [HIS-1] (ab49746, Abcam) was prepared at 1:10,000 dilution and added to the microwells for 1 h at room temperature. The plate was aspirated and washed with Wash Buffer (11×). AttoPhos® AP Fluorescent Substrate System (S1000, Promega) was employed to develop the microwells. Using an excitation wavelength of 430 nm, fluorescent emission at 535 nm was recorded by Beckman Coulter DTX880 photometer. Data are shown after subtraction of the no-epitope background.
# (§3) For this experiment, the IL-17F Epitope1 was re-synthesized with a His6 assay handle and C48S substitution instead of a click handle. Two additional His-tagged IL-17F epitopes were synthesized to contain strategic scrambling of the sequences either N-terminal or C-terminal to C48S (scrambled residues are shown in italics): • 1) His6-PEG3-[…] (SEQ ID NO:39); • 2) His6-PEG3-[…] (scrambled C-terminal to click handle; SEQ ID NO:40); • 3) His6-PEG3-[…] (scrambled N-terminal to click handle; SEQ ID NO:41).
# (§4) In anticipation of forming a biligand with LF2 (SEQ ID NO: 28), it was important to gain insight on whether LF1 (SEQ ID NO:9) preferentially binds to the N- or C-terminus of Epitope1. Therefore, two His-tagged IL-17F epitopes were generated, scrambling the sequence either N-terminal or C-terminal to the location of the azide click handle. His6 assay handle and C48S substitution instead of a click handle. The scrambled amino acids are shown in italics. MALDI-TOF MS (m/z): calculated for C116H163N37O31 (M+H) 2571.23; found 2571.57.
# [4] = molecular target: T3, His-tagged IL-17F Epitope1 (C48S) (Homo sapiens, UniProt Q96PD4); test: as above; details: epitope 2 μM, unscrambled
# T3 construct: made in house; host or cells: chemical peptide synthesis
# Protocol: as §2, §3, §4
# IL-17F protein [5] = molecular target: T2, IL-17F protein; test: Fluorescence polarization titration in solution; type: binding
# Protocol: The bonding affinities of the macrocycles were tested in solution by titrating the recombinant human IL-17F protein against fluorescein 5-isothiocyanate (5-FITC)-tagged macrocycles by fluorescence polarization. […] The structure of LA3 (SEQ ID NO:44), the lead macrocycle developed against IL-17A Epitope3, is shown below (X=PEG3-biotin). MALDI-TOF MS (m/z): calcd. for C62H98N22O13S (M+H) 1391.74; found 1392.36.
compound,measurement,setting,value
"CC(O)[C@H]1NC(=O)[C@@H](C)NC(=O)[C@@H](CCCNC(=N)N)NC(=O)[C@@H](CCCNC(=N)N)NC(=O)[C@@H](NC(=O)COCCOCCOCCNC(=O)[C@@H]2CCCCn3cc(nn3)C[C@H](NC(=O)COCCOCCOCCNC(=O)CCCC[C@H]3SC[C@H]4NC(=O)N[C@H]43)C(=O)N[C@H](CCCNC(=N)N)C(=O)N[C@H](CO)C(=O)N[C@H](Cc3ccc(O)cc3)C(=O)N[C@H](CC(N)=O)C(=O)N[C@H](CCCCN)C(=O)N2)Cc2cn(nn2)CCCC[C@@H](C(N)=O)NC(=O)[C@@H](CO)NC1=O (stereo partly drawn) [Bi-LG, Biotin-PEG3-Cy(rsynkX1X2)-PEG3-Cy(rratsX1X2)] ({Biotinyl(3aR,4R,6aS)-AEEEA}-[Pra][dR][dS][dY][dN][dK][Lys(N3)][AEEEA][Pra][dR][dR][dA][dThr(3ξ)][dS][Lys(N3)]-NH2; triazole 1-7, 9-15)","binding affinity compared, in words",[1]; IL-17F,slightly weaker binding
same,susceptibility to trypsin digestion,trypsin,resistance to trypsin digestion; also recorded: resistant to trypsin digestion
"CC(O)[C@@H]1NC(=O)[C@H](C)NC(=O)[C@@H](CCCNC(=N)N)NC(=O)[C@@H](CCCNC(=N)N)NC(=O)[C@@H](NC(=O)COCCOCCOCCNC(=O)[C@@H]2CCCCn3cc(nn3)C[C@H](NC(=O)COCCOCCOCCNC(=O)CCCC[C@H]3SC[C@H]4NC(=O)N[C@H]43)C(=O)N[C@H](CCCNC(=N)N)C(=O)N[C@@H](CO)C(=O)N[C@@H](Cc3ccc(O)cc3)C(=O)N[C@@H](CC(N)=O)C(=O)N[C@H](CCCCN)C(=O)N2)Cc2cn(nn2)CCCC[C@@H](C(N)=O)NC(=O)[C@H](CO)NC1=O (stereo partly drawn) [Bi-LS, Biotin-PEG3-Cy(rSYNkX1X2)-PEG3-Cy(rrATSX1X2)] ({Biotinyl(3aR,4R,6aS)-AEEEA}-[Pra][dR]SYN[dK][Lys(N3)][AEEEA][Pra][dR][dR]A[Thr(3ξ)]S[Lys(N3)]-NH2; triazole 1-7, 9-15)","binding affinity compared, in words",[1]; IL-17F,slightly weaker binding
same,susceptibility to trypsin digestion,trypsin,resistant to trypsin digestion
"CC(O)[C@@H]1NC(=O)[C@H](C)NC(=O)[C@H](CCCNC(=N)N)NC(=O)[C@H](CCCNC(=N)N)NC(=O)[C@@H](NC(=O)COCCOCCOCCNC(=O)[C@@H]2CCCCn3cc(nn3)C[C@H](NC(=O)COCCOCCOCCNC(=O)CCCC[C@H]3SC[C@H]4NC(=O)N[C@H]43)C(=O)N[C@@H](CCCNC(=N)N)C(=O)N[C@@H](CO)C(=O)N[C@@H](Cc3ccc(O)cc3)C(=O)N[C@@H](CC(N)=O)C(=O)N[C@@H](CCCCN)C(=O)N2)Cc2cn(nn2)CCCC[C@@H](C(N)=O)NC(=O)[C@H](CO)NC1=O (stereo partly drawn) [Biotin-PEG3-Cy(RSYNKX1X2)-PEG3-Cy(RRATSX1X2)] ({Biotinyl(3aR,4R,6aS)-AEEEA}-[Pra]RSYNK[Lys(N3)][AEEEA][Pra]RRA[Thr(3ξ)]S[Lys(N3)]-NH2; triazole 1-7, 9-15)",bivalent interaction stronger than the other biligands,[1]; IL-17F,at least 16 times
same,improvement in affinity relative to the individual PCC macrocyclic ligands,[1]; IL-17F,> 100 fold
same,susceptibility to trypsin digestion,trypsin,trypsin digestion indeed occurred
same,binding to IL-17F in human serum,IL-17F protein [2]; 25% (v/v) serum,detectable
same,IL-17F binding efficiency in human serum,IL-17F protein [2],no reduction in binding efficiency
"C[C@@H]1NC(=O)[C@H](CCCNC(=N)N)NC(=O)[C@H](CCCNC(=N)N)NC(=O)[C@@H](N)Cc2cn(nn2)CCCC[C@@H](C(=O)NCCCOCCOCCOCCCNC(=O)CCCCC2SC[C@H]3NC(=O)N[C@@H]23)NC(=O)[C@H](CO)NC(=O)[C@H](CCC(N)=O)NC1=O (stereo partly drawn) [Cy(RRAQSX1X2), Cy(RRAQSX1X2)-PEG3-biotin] (H-[Pra]RRAQS[Lys(N3)]-X1; triazole 1-7)",ELISA signal for epitope scrambled C-terminal to click handle,[3],positive ELISA signals
same,binding to epitope scrambled N-terminal to click handle,[3],Binding was destroyed
same,ELISA signal for His-tagged IL-17F Epitope1 (C48S),[4],positive ELISA signals
"C=C1N[C@@H](CCCCN)C(=O)N[C@H](C(N)=O)CCCCn2cc(nn2)C[C@H](NC(=O)COCCOCCOCCNC(=O)CCCC[C@@H]2SC[C@@H]3NC(=O)N[C@@H]32)C(=O)N[C@@H](CCCNC(=N)N)C(=O)N[C@@H](CO)C(=O)N[C@@H](Cc2ccc(O)cc2)C(=O)N[C@H]1CC(N)=O [Cy(RSYNKX1X2), Biotin-PEG3-Cy(RSYNKXIX2)]",Kd,[1]; against His-tagged IL-17F,15 nM
same,"binding affinity compared, in words",[1]; IL-17F,exceeds the binding affinity of the similarly assayed biotinylated monoclonal anti-IL17F
same,EC50,"[1]; surface-immobilized ligand, dilution series of His-tagged IL-17F",15 ± 5 nM
same,Kd,"IL-17F protein [5]; 5-FITC-tagged macrocycles, in solution",28 ± 9 nM
same,standard Gibbs free energy change (ΔG°=RTlnKD) of binding to IL-17F,IL-17F protein [5]; 25° C.,-10.3 kcal/mol
same,IL-17F binding efficiency in human serum,IL-17F protein [2],reduced intensity
